From ChEMBL document CHEMBL1132934, “Multivariate data analysis using D-optimal designs, partial least squares, and response surface modeling: A directional approach for the analysis of farnesyltransferase inhibitors” (J Med Chem, 2000) come the findings set out here.

Each structure is given as a SMILES string. Calls of active or inactive are those of the source. No cut-off for these calls is given here.

Experiment [1] has as its target T1, Protein farnesyltransferase (Homo sapiens, UniProt P49354+P49356). As to the kind of experiment: Inhibition of farnesyltransferase by Ras/SPA assay. It counts as protein-complex assay.
Experiment [2] can be described thus: Binding affinity against Ras SPA enzyme.
The subject of experiment [3] is HCT-116. As to the kind of experiment: (§1) […] inhibition of cellular activity in HCT116 colony formation assay. Particulars: Homo sapiens. It counts as functional.
Experiment [4] deals with HCT-116. Briefly: […] inhibition of cellular activity in HCT116 colony formation assay; AI means almost inactive. The experiment is classed as functional. Particulars: Homo sapiens.
Experiment [5] concerns HCT-116. Described as §1. The experiment is classed as functional, Homo sapiens.
The target of experiment [6] is T1, Protein farnesyltransferase. As to the kind of experiment: Inhibition of Farnesyltransferase. It counts as protein-complex assay.
A short description of experiment [7]: Binding affinity against Ras protein.
Experiment [8] relates to HCT-116. Briefly: […] inhibition of cellular activity in HCT116 colony formation assay; CA means cytostatic activity. The experiment is classed as functional. Particulars: Homo sapiens.

What is called Ki is a measure of affinity in units of concentration, obtained from inhibition or displacement. A high value points to weaker binding. `C=C(C(=O)N1C[C@H]2[C@@]3(c4ccc5c(c4)CCO5)CC[C@H](c4ccccc43)[C@@]2(C(=O)O)C1)c1ccccc1OC` returned a Ki in experiment [1] of 420 nM.

`COCCCC(=O)N1C[C@H]2[C@@]3(c4ccccc4)CC[C@H](c4ccccc43)[C@@]2(C(=O)O)C1` registered a Ki in experiment [2] of 100000 nM.

Usually IC50 stands for the concentration needed to halve the response being measured. High values mean weaker potency in that assay, low ones greater potency in that assay. On to `C=C(C(=O)N1C[C@H]2[C@@]3(c4ccccc4)CC[C@H](c4ccccc43)[C@@]2(C(=O)O)C1)c1ccccc1OC` (racemic), for which the affinity in experiment [1] corresponds to a Ki of 25 nM. In the experiment on HCT-116 [3], inhibition was half-maximal at 720 nM (IC50). In addition, the AI result in the experiment with HCT-116 [4] is “inactive”.

Consider `COc1ccccc1CC(=O)N1C[C@H]2[C@@]3(c4ccccc4)CC[C@](O)(c4ccccc43)[C@@]2(C(=O)O)C1`, for which the Ki in experiment [1] worked out at 250 nM.

With `COc1ccccc1CC(=O)N1C[C@H]2[C@@]3(c4ccccc4)CC[C@H](c4c(O)cccc43)[C@@]2(C(=O)O)C1`, the Ki in experiment [1] was 50000 nM.

Consider `C=C(C(=O)N1C[C@H]2[C@@]3(c4ccc(OCC(=O)O)cc4)CC[C@H](c4ccccc43)[C@@]2(C(=O)O)C1)c1ccccc1OC`, for which the Ki in experiment [1] was determined as 25500 nM.

As for `C=C(C(=O)N1C[C@H]2[C@@]3(c4ccc(Br)cc4)CC[C@H](c4ccccc43)[C@@]2(C(=O)O)C1)c1ccccc1OC`, the IC50 in the experiment on HCT-116 [5] came to 59 nM. This counts as double-digit nanomolar.

For the molecule `COc1ccccc1CC(=O)N1C[C@@H]2[C@@H]3CC[C@@](c4ccccc4)(c4ccccc43)[C@@H]2C1`, the Ki in experiment [1] was determined as 40000 nM.

On to `COc1ccccc1CC(=O)N1C[C@H]2[C@@]3(c4ccccc4)CC[C@H](c4ccccc43)[C@@]2(C(=O)O)C1` (racemic), for which the IC50 in the experiment on HCT-116 [3] was above 10000 nM; in experiment [6], 200 nM.

In experiment [1], `CONC(=O)[C@]12CN(C(=O)Cc3ccccc3OC)C[C@H]1[C@@]1(c3ccccc3)CC[C@@H]2c2ccccc21` came in with a Ki of 420 nM.

In experiment [2], `COc1ccccc1CC(=O)N1C[C@H]2[C@@]3(c4ccccc4)CC[C@H](c4ccccc43)[C@@]2(NC(=O)OCc2ccccc2)C1` displayed a Ki of 100000 nM.

Molecule `COc1ccccc1CC(=O)N1C[C@H]2[C@@]3(c4ccccc4)CC[C@H](c4ccccc43)[C@@]2(C(=O)O)C1` showed a Ki in experiment [1] of 140 nM.

As for `O=C(Cc1ccccc1OCc1ccccc1)N1C[C@H]2[C@@]3(c4ccccc4)CC[C@H](c4ccccc43)[C@@]2(C(=O)O)C1`, the Ki in experiment [7] and in experiment [1] was 32000 nM each time.

Regarding `COc1ccccc1CC(=O)N1C[C@H]2[C@@]3(c4ccccc4)CC[C@H](c4ccccc43)[C@@]2(C(=O)NN)C1`, the affinity in experiment [2], expressed as Ki, was 2450 nM.

On to `COc1ccccc1CC(=O)N1C[C@H]2[C@@]3(c4ccccc4)CC[C@H](c4ccccc43)[C@@]2(C(=O)NCC(=O)O)C1`, for which, in experiment [1], affinity was put at a Ki of 738 nM.

With `COc1ccccc1CC(=O)N1C[C@H]2[C@@]3(c4ccccc4)CC[C@H](c4ccccc43)[C@@]2(C(=O)N[C@H](C)c2ccccc2)C1`, the affinity in experiment [2], expressed as Ki, was 2080 nM.

As to `C=C(C(=O)N1C[C@H]2[C@@]3(c4ccc(C)cc4)CC[C@H](c4ccccc43)[C@@]2(C(=O)O)C1)c1ccccc1OC` (racemic), the IC50 in the experiment on HCT-116 [3] was 45 nM; in experiment [6], 8 nM. Also, the CA result in the experiment with HCT-116 [8] was “cytostatic activity”.
